# From patent US9688669B2, “Oxazolidinones as modulators of mGluR5” (BRISTOL-MYERS SQUIBB COMPANY, priority 2013, dated 2017)
# Molecular target: human mGluR5A (Homo sapiens (Human), UniProt P41594)
# Experiment: mGluR5 FLIPR Assay
# Assay type: cell-based
# Conditions: positive modulator activity, HEK293 (ZF) cells with human mGluR5A and rat GLAST, Ca++ response to ~EC10 l-glutamate
# Procedure: HEK293 (ZF) cells stably transfected with human mGluR5A (pIRES neo) and the rat glutamate-aspartate transporter (GLAST; pIRES puro) are grown in a monolayer culture at 37° C. in 5% CO2 and fed with Minimum Essential Medium (MEM) supplemented with 10% dialysed fetal bovine serum. […] Plates are incubated in dye at 37° C. in 5% CO2 for 60 minutes prior to delivery of test compounds in assay buffer. Test compounds are incubated with cells in the presence of dye for 10 minutes prior to being read on the FLIPR platform (Molecular Devices). A Ca^++ signal is induced in the assay plates via the delivery of an ˜EC10 concentration of the endogenous agonist 1-glutamate; images are acquired at 1 Hz for 100 seconds post-delivery of agonist stimulus. Positive modulator activity (i.e. the ability of test compounds to increase the Ca^++ response to a sub-maximal concentration of agonist) is normalized to a saturating concentration of a known mGluR5 PAM run in each assay plate. An EC50 concentration of test compounds is derived from 4-parameter logistic curve fits of transformed fluoresence data via proprietary software suite.
# Chain of human mGluR5A (P41594 other isoform, or with tags, fused parts or gaps): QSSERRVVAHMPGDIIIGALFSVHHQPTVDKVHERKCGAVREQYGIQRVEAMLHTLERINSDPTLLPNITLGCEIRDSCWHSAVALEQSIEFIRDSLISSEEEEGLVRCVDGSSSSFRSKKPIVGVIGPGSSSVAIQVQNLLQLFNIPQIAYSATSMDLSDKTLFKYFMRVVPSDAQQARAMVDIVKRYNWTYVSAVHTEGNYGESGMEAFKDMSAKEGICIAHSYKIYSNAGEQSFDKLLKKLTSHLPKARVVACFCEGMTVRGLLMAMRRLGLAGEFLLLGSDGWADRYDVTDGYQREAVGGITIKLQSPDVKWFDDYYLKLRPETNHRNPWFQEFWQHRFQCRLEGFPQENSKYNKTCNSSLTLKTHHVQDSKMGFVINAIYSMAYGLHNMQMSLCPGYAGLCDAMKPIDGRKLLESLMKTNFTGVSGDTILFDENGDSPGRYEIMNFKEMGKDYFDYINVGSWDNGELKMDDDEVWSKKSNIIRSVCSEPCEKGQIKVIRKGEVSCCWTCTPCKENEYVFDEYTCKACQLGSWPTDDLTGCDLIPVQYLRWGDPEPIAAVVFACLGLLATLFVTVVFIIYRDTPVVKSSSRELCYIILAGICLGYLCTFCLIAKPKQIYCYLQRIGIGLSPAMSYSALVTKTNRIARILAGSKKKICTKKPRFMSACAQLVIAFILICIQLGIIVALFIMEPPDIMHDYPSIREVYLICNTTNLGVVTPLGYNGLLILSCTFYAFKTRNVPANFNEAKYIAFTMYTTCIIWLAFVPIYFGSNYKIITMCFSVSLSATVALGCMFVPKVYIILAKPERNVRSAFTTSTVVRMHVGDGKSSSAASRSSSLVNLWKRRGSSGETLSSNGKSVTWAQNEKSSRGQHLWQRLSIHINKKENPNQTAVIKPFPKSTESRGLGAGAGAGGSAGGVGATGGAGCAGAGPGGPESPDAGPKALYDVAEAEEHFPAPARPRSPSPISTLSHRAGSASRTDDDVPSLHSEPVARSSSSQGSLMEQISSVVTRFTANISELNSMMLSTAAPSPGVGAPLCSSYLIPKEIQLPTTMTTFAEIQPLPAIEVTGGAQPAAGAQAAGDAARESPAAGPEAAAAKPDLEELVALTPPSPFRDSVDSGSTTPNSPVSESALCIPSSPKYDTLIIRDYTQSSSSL
row,Structure (SMILES),EC50
1,"CC(O)CCC#Cc1cncc([C@H]2NC(=O)O[C@@H]2c2cccc(F)c2)c1 (single isomer, unassigned) [Example 7]",5.9 nM
2,"CCC(O)CC#Cc1cncc([C@H]2NC(=O)O[C@@H]2c2cccc(F)c2)c1 (single isomer, unassigned) [Example 19]",27.6 nM
3,CCSCC#Cc1cncc([C@H]2NC(=O)O[C@@H]2c2cccc(F)c2)c1 [Example 2],2 nM
4,CCCCC#Cc1cncc([C@H]2NC(=O)O[C@@H]2c2cccc(F)c2)c1 [Example 3],2.2 nM
5,CC(C)CCC#Cc1cncc([C@H]2NC(=O)O[C@@H]2c2cccc(F)c2)c1 [Example 5],4.7 nM
6,CCCC#Cc1cncc([C@H]2NC(=O)O[C@@H]2c2cccc(F)c2)c1 [Example 6],5.2 nM
7,CC(O)CCC#Cc1cncc([C@H]2NC(=O)O[C@@H]2c2cccc(F)c2)c1 (some centres unmarked) [Example 8],12.3 nM
8,CC(C)CC#Cc1cncc([C@H]2NC(=O)O[C@@H]2c2cccc(F)c2)c1 [Example 9],11.4 nM
9,CC(O)CCC#Cc1cncc([C@H]2NC(=O)O[C@@H]2c2cccc(F)c2)c1 (some centres unmarked) [Example 10],12.6 nM
10,O=C1N[C@H](c2cncc(C#CCC3CCOCC3)c2)[C@@H](c2cccc(F)c2)O1 [Example 11],13.6 nM
11,CCC(C)(O)C#Cc1cncc([C@H]2NC(=O)O[C@@H]2c2cccc(F)c2)c1 (some centres unmarked) [Example 16],> 3230 nM
12,COCCC#Cc1cncc([C@H]2NC(=O)O[C@@H]2c2cccc(F)c2)c1 [Example 17],23.2 nM
13,O=C1N[C@H](c2cncc(C#CCOc3ccccc3)c2)[C@@H](c2cccc(F)c2)O1 [Example 24],43.9 nM
14,Cc1ccn(CC#Cc2cncc([C@H]3NC(=O)O[C@@H]3c3cccc(F)c3)c2)n1 [Example 26],46.2 nM
15,O=C1N[C@H](c2cncc(C#CCn3cc(Cl)cn3)c2)[C@@H](c2cccc(F)c2)O1 [Example 27],48.2 nM
16,O=C1N[C@H](c2cncc(C#CCC3CC3(F)F)c2)[C@@H](c2cccc(F)c2)O1 (some centres unmarked) [Example 29],77.5 nM
17,Cc1ccnn1CC#Cc1cncc([C@H]2NC(=O)O[C@@H]2c2cccc(F)c2)c1 [Example 31],108 nM
18,O=C1N[C@H](c2cncc(C#CCn3ccnc3)c2)[C@@H](c2cccc(F)c2)O1 [Example 33],134 nM
19,CC(C)(C)OCC#Cc1cncc([C@H]2NC(=O)O[C@@H]2c2cccc(F)c2)c1 [Example 34],244 nM
20,N#CCCC#Cc1cncc([C@H]2NC(=O)O[C@@H]2c2cccc(F)c2)c1 [Example 35],255 nM
21,O=C1N[C@H](c2cncc(C#CCN3CCOCC3)c2)[C@@H](c2cccc(F)c2)O1 [Example 36],291 nM
22,COCC(O)CC#Cc1cncc([C@H]2NC(=O)O[C@@H]2c2cccc(F)c2)c1 (some centres unmarked) [Example 37],383 nM
23,O=C1N[C@H](c2cncc(C#CCOC3CCCCO3)c2)[C@@H](c2cccc(F)c2)O1 (some centres unmarked) [Example 38],498 nM

row,Structure (SMILES),EC50
1,CC(C)(O)CC#Cc1cncc([C@H]2NC(=O)O[C@@H]2c2cccc(F)c2)c1 [Example 40],513 nM
2,O=C1N[C@H](c2cncc(C#CCN3CCCCC3)c2)[C@@H](c2cccc(F)c2)O1 [Example 41],730 nM
3,O=C1N[C@H](c2cncc(C#CCc3ccccc3)c2)[C@@H](c2cccc(F)c2)O1 [Example 43],> 1610 nM
4,CN(C)CCC#Cc1cncc([C@H]2NC(=O)O[C@@H]2c2cccc(F)c2)c1 [Example 44],> 1610 nM
5,CC(=O)NCC#Cc1cncc([C@H]2NC(=O)O[C@@H]2c2cccc(F)c2)c1 [Example 45],> 1610 nM
6,O=C1N[C@H](c2cncc(C#CCN3CCCC3=O)c2)[C@@H](c2cccc(F)c2)O1 [Example 47],> 1610 nM
7,O=C1N[C@H](c2cncc(C#CCNC(=O)C(F)(F)F)c2)[C@@H](c2cccc(F)c2)O1 [Example 48],> 1610 nM
8,O=C1N[C@H](c2cncc(C#CCn3ncc4ccccc43)c2)[C@@H](c2cccc(F)c2)O1 [Example 49],> 1610 nM
9,CCCCCC#Cc1cncc([C@H]2NC(=O)O[C@@H]2c2cccc(F)c2)c1 [Example 51],8.1 nM
10,O=C1N[C@H](c2cncc(C#CCOCC(F)(F)F)c2)[C@@H](c2cccc(F)c2)O1 [Example 52],9.3 nM
11,CCOCC#Cc1cncc([C@H]2NC(=O)O[C@@H]2c2cccc(F)c2)c1 [Example 53],16.2 nM
12,Cc1cnn(CC#Cc2cncc([C@H]3NC(=O)O[C@@H]3c3cccc(F)c3)c2)c1 [Example 54],107 nM
13,CCOCCC#Cc1cncc([C@H]2NC(=O)O[C@@H]2c2cccc(F)c2)c1 [Example 55],27.8 nM
14,COCC#Cc1cncc([C@H]2NC(=O)O[C@@H]2c2cccc(F)c2)c1 [Example 60],458 nM
15,CC(C)(C)C#Cc1cncc([C@H]2NC(=O)O[C@@H]2c2cccc(F)c2)c1 [Example 61],> 3230 nM
16,O=C1N[C@H](c2cncc(C#CCn3cccn3)c2)[C@@H](c2cccc(F)c2)O1 [Example 62],10.9 nM
17,O=C1N[C@H](c2cncc(C#CCC3CCOC3)c2)[C@@H](c2cccc(F)c2)O1 (some centres unmarked) [Example 64],20 nM
18,O=C1N[C@H](c2cncc(C#CCC3CCOC3)c2)[C@@H](c2cccc(F)c2)O1 (some centres unmarked) [Example 65],14.7 nM
19,O=C1N[C@H](c2cncc(C#CCC3CCOC3)c2)[C@@H](c2cccc(F)c2)O1 (some centres unmarked) [Example 66],15.2 nM
20,O=C1N[C@H](c2cncc(C#CCCOCC(F)(F)F)c2)[C@@H](c2cccc(F)c2)O1 [Example 67],88.6 nM
21,O=C1N[C@H](c2cncc(C#CCC3COC3)c2)[C@@H](c2cccc(F)c2)O1 [Example 68],932 nM
22,"O=C1N[C@H](c2cncc(C#CCN3CC(F)(F)C3)c2)[C@@H](c2cccc(F)c2)O1 [Example 70, (4R,5R)-4-(5-(3-(3,3-Difluoroazetidin-1-yl)prop-1-yn-1-yl)pyridin-3-yl)-5-(3-fluorophenyl)oxazolidin-2-one]",29.6 nM

# Second part, the compound after the results:
row,EC50,Structure (SMILES)
1,20.4 nM,"CCCC(O)C#Cc1cncc([C@H]2NC(=O)O[C@@H]2c2cccc(F)c2)c1 (single isomer, unassigned) [Example 15]"
2,60.8 nM,"CCC(O)CC#Cc1cncc([C@H]2NC(=O)O[C@@H]2c2cccc(F)c2)c1 (single isomer, unassigned) [Example 20]"
3,32.3 nM,"CCCC(O)C#Cc1cncc([C@H]2NC(=O)O[C@@H]2c2cccc(F)c2)c1 (single isomer, unassigned) [Example 22]"
4,77.3 nM,"O=C1N[C@H](c2cncc(C#CC(O)C3CC3)c2)[C@@H](c2cccc(F)c2)O1 (single isomer, unassigned) [Example 57]"
5,226 nM,"O=C1N[C@H](c2cncc(C#CC(O)C3CC3)c2)[C@@H](c2cccc(F)c2)O1 (single isomer, unassigned) [Example 59]"
6,27.9 nM,"O=C1N[C@H](c2cncc(C#CC(O)CC3CC3)c2)[C@@H](c2cccc(F)c2)O1 (single isomer, unassigned) [Example 73]"
7,27.4 nM,"O=C1N[C@H](c2cncc(C#CC(O)CC3CC3)c2)[C@@H](c2cccc(F)c2)O1 (single isomer, unassigned) [Example 74]"
8,1.7 nM,"O=C1N[C@H](c2cncc(C#CCC3CCC3)c2)[C@@H](c2cccc(F)c2)O1 [Example 1, (4R,5R)-4-(5-(3-Cyclobutylprop-1-yn-1-yl)pyridin-3-yl)-5-(3-fluorophenyl)oxazolidin-2-one]"
9,3.6 nM,O=C1N[C@H](c2cncc(C#CCC3CC3)c2)[C@@H](c2cccc(F)c2)O1 [Example 4]
10,15.4 nM,CCCC(O)C#Cc1cncc([C@H]2NC(=O)O[C@@H]2c2cccc(F)c2)c1 (some centres unmarked) [Example 12]
11,16.4 nM,O=C1N[C@H](c2cncc(C#CCC3CCCCC3)c2)[C@@H](c2cccc(F)c2)O1 [Example 13]
12,16.6 nM,O=C1N[C@H](c2cncc(C#CC(O)C3CCC3)c2)[C@@H](c2cccc(F)c2)O1 (some centres unmarked) [Example 14]
13,29.5 nM,CCC(O)CC#Cc1cncc([C@H]2NC(=O)O[C@@H]2c2cccc(F)c2)c1 (some centres unmarked) [Example 21]
14,43.6 nM,CCCC(C)C#Cc1cncc([C@H]2NC(=O)O[C@@H]2c2cccc(F)c2)c1 (some centres unmarked) [Example 23]
15,45.2 nM,CC(C)CC(O)C#Cc1cncc([C@H]2NC(=O)O[C@@H]2c2cccc(F)c2)c1 (some centres unmarked) [Example 25]
16,76.9 nM,CC(C)C(O)C#Cc1cncc([C@H]2NC(=O)O[C@@H]2c2cccc(F)c2)c1 (some centres unmarked) [Example 28]
17,85.1 nM,O=C1N[C@H](c2cncc(C#CC(O)C3CCCCC3)c2)[C@@H](c2cccc(F)c2)O1 (some centres unmarked) [Example 30]
18,116 nM,CCC(O)C#Cc1cncc([C@H]2NC(=O)O[C@@H]2c2cccc(F)c2)c1 (some centres unmarked) [Example 32]
19,510 nM,O=C1N[C@H](c2cncc(C#CC3(O)CCCC3)c2)[C@@H](c2cccc(F)c2)O1 [Example 39]
20,> 1610 nM,CC(O)CC#Cc1cncc([C@H]2NC(=O)O[C@@H]2c2cccc(F)c2)c1 (some centres unmarked) [Example 42]
21,> 1610 nM,O=C1N[C@H](c2cncc(C#CCC3(O)CCC3)c2)[C@@H](c2cccc(F)c2)O1 [Example 46]
22,> 3230 nM,CC(C)C#Cc1cncc([C@H]2NC(=O)O[C@@H]2c2cccc(F)c2)c1 [Example 50]
23,67 nM,CCCCC(O)C#Cc1cncc([C@H]2NC(=O)O[C@@H]2c2cccc(F)c2)c1 (some centres unmarked) [Example 56]
24,204 nM,O=C1N[C@H](c2cncc(C#CC(O)C3CC3)c2)[C@@H](c2cccc(F)c2)O1 (some centres unmarked) [Example 58]
25,12.4 nM,O=C1N[C@H](c2cncc(C#CCC3CCCO3)c2)[C@@H](c2cccc(F)c2)O1 (some centres unmarked) [Example 63]
26,> 1610 nM,O=C1N[C@H](c2cncc(C#CCC3CCO3)c2)[C@@H](c2cccc(F)c2)O1 (some centres unmarked) [Example 69]
